Measurements as given in patent US7384558B2, “Compositions capable of inhibiting reactive oxygen and carbonyl species” (Baxter International Inc., priority 2004, dated 2008).
Where “and” joins values, the source holds several entries; their conditions need not be identical. Equal entries are not always repeated.

Assay: TEAC (Trolox equivalent antioxidant activity) ABTS decolorization assay
Conditions: for antioxidant activity as compared to the Vitamin E standard compound (Trolox): Table 1, statement in words; for TEAC (Ratio % Inhibition): ratio of % inhibition of antioxidant compound / % inhibition of Trolox; for TEAC (Slope): relative to Trolox as standard, slope of % inhibition vs concentration
Protocol: Tests were conducted to evaluate the antioxidant and carbonyl trapping properties of therapeutic compositions according to various embodiments of the present invention. A Trolox equivalent antioxidant activity (TEAC) test was conducted to assess the antioxidant properties as described below in greater detail.
The TEAC antioxidant activity was measured by the ABTS [2,2′-Azinobis-(3-ethylbenzothiazoline-6-sulphonic acid)] decolorization assay. In this method, a stable radical (ABTS radical cation) is formed, and the adsorption maxima is determined. See, for example, R. Ree, N. Pellegrini, A. Proteggente, A. Pannala, M. Yang and C. Rice-Evans, Antioxidant activity applying an improved ABTS radical cation decolorization assay, Free Rad. Biol. & Med., 26 (9/10), 1231-1237 (1999). The addition of antioxidant to the pre-formed radical cation reduces it to an extent and on a time-scale depending on the antioxidant activity, the concentration of the antioxidant and the duration of the reaction. Thus, the extent of reduction (decolorization) as percentage inhibition of the ABTS radical cation is determined as a function of concentration and time and calculated relative to the reactivity of Trolox as a standard under the same conditions. The TEAC value is calculated by the ratio of % of Inhibition of antioxidant compound/% Inhibition of Trolox.

Row | Compound | antioxidant activity as compared to the Vitamin E standard compound (Trolox) | TEAC (Ratio % Inhibition) | TEAC (Slope)
1 | Cc1c(C)c2c(c(C)c1O)CCC(C)(CCN1CCN(C(=O)[C@@H](N)CS)CC1)O2 (some centres unmarked) [VE-CYS-1, N-[2-(6-Hydroxy-tetramethylchroman-2-yl)ethyl]-N′-(cysteinyl)-piperazine] | enhanced antioxidant activity | 1.4-1.5 | 1.4(r2 = 0.9997)
2 | Cc1c(C)c2c(c(C)c1O)CCC(C)(CCON)O2 (centres unmarked) [VE-ONH2-1, 2-(6-Hydroxy-2,5,7,8-tetramethylchroman-2-yl)-1-(aminooxy)ethane] |  | 0.9-1.0 and 0.5-0.8 | 0.9(r2 = 0.9948) and 0.8(r2 = 0.9997)
3 | N-[2-(6-Hydroxy-tetramethylchroman-2-yl)ethyl]-N′-(penicillamyl)-piperazine [VE-PEN-1] | enhanced antioxidant activity | 1.6-2.1 | 1.3(r2 = 0.9996)
